According to US5674894A, “Amidine derivatives useful as platelet aggregation inhibitors and vasodilators” (G.D. Searle & Co., priority 1995, dated 1997):

Tests used:
[1] = molecular target: purified human fibrinogen receptor (IIb^β 3) (Homo sapiens, UniProt P05106+P08514); assay: Solid phase receptor assay, competitive binding to purified human fibrinogen receptor; details: biotinylated ligand 1 nM final, two hours, room temperature
Description: (§1) The compounds of the above invention were tested in the in vitro human platelet aggregation assay in platelet rich plasma (PRP) and in the competitive solid phase binding assay against purified human fibrinogen and vitronectin receptors.
(§2) Solid Phase Receptor Assays
(§3) These assays were essentially the same as previously reported. The purified human vitronectin receptor(αv β3) or purified human fibrinogen receptor(IIb^β 3) were diluted from stock solutions to 1.0 μg/mL in Tris-buffered saline containing 1.0 mM Ca^++, Mg^++, and Mn^++, pH 7.4 (TBS^+++). The diluted receptor was immediately transferred to Linbro microtiter plates at 100 μL/well (100 ng receptor/well). The plates were sealed and incubated overnight at 4° C. to allow the receptor to bind to the wells. All remaining steps were at room temperature. The assay plates are emptied and 200 μL of 1% radioimmunoassay grade bovine serum albumin in TBS^+++ (TBS^+++ /BSA) were added to block exposed plastic surfaces. Following a 2 hour incubation, the assay plates were washed with TBS^+++ using a 96 well plate washer. Logarithmic serial dilution of the test compound and controls were made starting at a stock concentration of 2 mM and using 2 nM biotinylated vitronectin in TBS^+++ /BSA as the diluent. This premixing of labeled ligand with test (or control) ligand, and subsequent transfer of 50 μL aliquots to the assay plate was carried out with a CETUS Propette robot; the final concentration of the labeled ligand was 1 nM and the highest concentration of test compound was 1.0×10^-4M. The competition occurred for two hours after which all wells were washed with a plate washer as before. Affinity purified horseradish peroxidase labeled goat anti-biotin antibody was diluted 1:3000 in TBS^+++ /BSA and 125 μL were added to each well. After 30 minutes, the plates were washed and incubated with o-phenylendiamine/H2 O2 substrate in 100 mM/L Citrate buffer, pH 5.0. The plate was read with a microtiter plate reader at a wavelength of 450 nm and when the maximum-binding control wells reached an absorbance of about 1.0, the final A450 were recorded for analysis. The data were analyzed using a macro written for use with the EXCEL™ spreadsheet program. The mean, standard deviation, and % coefficient variation were determined for duplicate concentrations. The mean A450 values were normalized to the mean of four maximum-binding controls (no competitor added). The normalized values were subjected to a four parameter curve fit algorithm, plotted on a semi-log scale, and the computed IC50 and corresponding correlation coefficient was reported. GRGDSP, a peptide fragment of fibrinogen, was included on each plate as a positive control.

[2] = molecular target: purified human vitronectin receptor (αv β3) (Homo sapiens, UniProt P05106+P06756); assay: Solid phase receptor assay, competitive binding to purified human vitronectin receptor; details: biotinylated vitronectin 1 nM final, two hours, highest concentration 1.0×10^-4M, read-out: IC50 Vitronetin receptor
Description: as §1, §2, §3

[3] = test system: ADP-Induced Platelet Aggregation in Human PRP; assay: In-Vitro Human Platelet Aggregation in PRP (ADP-induced); type: cell-based; details: 1 minute preincubation at 37° C., tested in duplicate, read-out: IC50, inhibition of ADP-induced platelet aggregation in human PRP
Description: as §1
In-Vitro Human Platelet Aggregation in PRP:
Healthy male or female donors who have not taken any antiplatelet drugs for at least two weeks were fasted for 8 hours prior to drawing blood; then 30 mL whole blood was collected using a butterfly needle and 30 cc plastic syringe with 3 mL of 0.129M buffered sodium citrate (3.8%). The syringe was rotated carefully as blood was drawn to mix the citrate. Platelet-richplasma (PRP) was prepared by centrifugation at 250× g for 12 minutes at room temperature, allowing the centrifuge to coast to a stop without braking. The PRP was removed from the blood with a plastic pipette and placed in a plastic capped, 50 mL Corning conical sterile centrifuge tube which was held at room temperature. Platelet-poor plasma (PPP) was prepared by centrifuging the remaining blood at 2000× g for 15 minutes at room temperature allowing the centrifuge to coast to a stop without braking. The PRP was adjusted with PPP to a count of 2-3×10^8 platelets per mL. 450 μL of the PRP preparation and 50 μL of the compound to be tested or saline were preincubated for 1 minute at 37° C. in a Payton aggregometer (Payton Scientific, Inc., Buffalo, N.Y.). 50 μL of adenosine 5'-diphosphate (ADP) ([…]) was added to the cuvettes and the aggregation was monitored for 1 minute. All compounds are tested in duplicate. Results are calculated as follows: Percent of control=[(maximal OD minus initial OD of compound) divided by (maximal OD minus initial OD of control saline)]×100. The % inhibition=100-(percent of control). The compounds tested and their activity results at median inhibitory concentration (IC50) were as recorded in Table 1.

Compound | IC50 [1] [µM] | IC50 [2] [µM] | IC50 [3] [µM]
N=C(N)c1ccc(NC(=O)CCC(=O)NC(CC(=O)O)C(=O)O[C@H]2CO[C@H]3[C@@H]2OC[C@H]3O)cc1 (stereo partly drawn) [Example 8] | 0.00071 | > 100 | 0.3
N=C(N)c1ccc(CCCCC(=O)NC(CC(=O)O)C(=O)O[C@H]2CO[C@H]3[C@@H]2OC[C@H]3O[N+](=O)[O-])cc1 (stereo partly drawn) [Example 3] | 0.00311 | > 100 | 2
N=C(N)c1ccc(NC(=O)CCC(=O)NC(CC(=O)O)C(=O)O[C@H]2CO[C@H]3[C@@H]2OC[C@H]3O[N+](=O)[O-])cc1 (stereo partly drawn) [Example 6] | 0.00025 | > 100 | 0.4
N=C(N)c1ccc(CCCCC(=O)NC(CC(=O)O)C(=O)OC2COC3C(O)COC23)cc1 (stereo not drawn) [Example 5] | 0.00128 | > 100 | 2
